How the values were obtained:
Human PMNLs = assay: Inhibition of human PMNLs aggregation (LTB4-induced); assay type: cell-based; details: PMNL, LTB4 10^-8 M solution, 3 min preincubation at 37° C., pH 7.4
Protocol: ii) Inhibition of Human PMNLs aggregation
The purified human PMNLs were suspended in Hank's-0.5% BSA medium (pH 7.4) at 1×10^7 cells/ml. The PMNLs suspentions (200 μl) were preincubated with varying concentrations of tasted compounds for 3 min at 37° C. prior to the addition of 10^-8 M solution ([…]) of LTB4 in Hank's solution. PMNLs aggregation in vitro was performed with a multichannel platelet aggregometer. Aggregation was detected as change in light transmission with an aggregometer.

human PMNL LTB4 receptor = target: T1, human PMNL LTB4 receptor (Homo sapiens, UniProt Q15722); assay: Binding affinity of 3H-LTB4 antagonist to human PMNL LTB4 receptor (inhibition of specific 3H-LTB4 binding); details: 1 nM 3H-LTB4, human PMNLs, 4° C., 20 min
T1 construct: endogenous in cells; host or cells: human polymorphonuclear leukocytes (PMNL), intact cells
T1 sequence (Q15722 whole entry): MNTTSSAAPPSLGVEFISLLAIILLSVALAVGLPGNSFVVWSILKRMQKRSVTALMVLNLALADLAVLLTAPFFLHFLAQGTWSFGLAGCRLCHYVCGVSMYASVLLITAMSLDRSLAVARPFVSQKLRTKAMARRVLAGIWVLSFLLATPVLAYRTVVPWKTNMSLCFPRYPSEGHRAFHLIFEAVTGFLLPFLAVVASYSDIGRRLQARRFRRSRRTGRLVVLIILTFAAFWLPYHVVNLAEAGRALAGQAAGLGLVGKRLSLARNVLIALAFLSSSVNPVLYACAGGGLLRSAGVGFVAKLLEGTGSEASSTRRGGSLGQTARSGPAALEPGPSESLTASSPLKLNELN
Protocol: Human PMNLS (1×10^7 cells) were incubated with 1 nM ^3 H-LTB4 in Hanks balanced salt solution (1 ml) at 4° C. for 20 min. in the presence or absence of increasing concentrations of unlabeled LTB4 or various compounds. Free ^3 H-LTB4 was separated from PMNLs-bound ligands by vacuum filteration through Whatman GF/B or C glass fiber filters. The filters were then washed rapidly 4 times with 2.5 ml of the ice-cold phosphate buffered saline. The radioactivity retained in the filter was determined by liquid scintillation counting. Specific binding was defined as the difference between total binding and binding in the presence of 3 μM LTB4 (nonspecific binding). The inhibitory effect of specific ^3 H-LTB4 binding was calculated from the following equation.
The percentage of inhibition (%)=100-(B1 /B0 ×100)
B1 : specific ^3 H-LTB4 binding in presence of antagonist
B0 : specific ^3 H-LTB4 binding in absence of antagonist

[1] = Acute toxicity (LD50) in mouse; details: in vivo
Description: It was confirmed that the toxicity of the compounds, of the present invention were very low. […] Accordingly, it was confirmed that the compounds of the present invention were useful for pharmaceutical agent.

Q: For `COc1ccc(/C=C/CCCCOc2ccc(NC(=O)c3cccc(C(=O)O)c3)cc2CCC(=O)O)cc1` [2 (b), 3-[1-[6-(4-methoxyphenyl)hex-5E-enyl]oxy-4-(3-carboxylbenzamido)benzen-2-yl]propionic acid], which IC50 (Human PMNLs) is on record?
A: Its IC50 is 7400 nM.

Q: What about the IC50 (human PMNL LTB4 receptor) of the same compound?
A: The IC50 was 20 nM.

Q: With `COc1ccc(/C=C/CCCCOc2cccc(OCCCCN3CCCC3=O)c2CCC(=O)O)cc1` [30 (a), 3-[1-[6-(4-methoxyphenyl)hex-5E-enyl]oxy-3-[4-(2-pyrrolidon-1-yl)-n-butoxy]benzen-2-yl]propionic acid] as the compound, how does the IC50 (Human PMNLs) read?
A: The IC50 was 1100 nM.

Q: What about the IC50 (human PMNL LTB4 receptor) of the same compound?
A: The IC50 was 70 nM.

Q: Which results are given for `COc1ccc(/C=C/CCCCOc2cccc(OCCCCC(=O)O)c2CCC(=O)O)cc1` [31 (a), 3-[1-[6-(4-methoxyphenyl)hex-5E-enyl]oxy-3-(4-carboxylbutyl)oxybenzen-2-yl]propionic acid]?
A: LD50 ([1]; intravenous administration): 260 mg/kg; LD50 ([1]; oral administration): 2200 mg/kg; IC50 (Human PMNLs): 1900 nM

Q: With `COc1ccc(/C=C/CCCCOc2ccc(OCCCCC(=O)N(C)C)cc2CCC(=O)O)cc1` [Example 16, 3-[1-[6-(4-methoxyphenyl)hex-5E-enyl]oxy-4-(4-dimethylaminocarbonyl-n-butyl)oxybenzen-2-yl]propionic acid] as the compound, how does the IC50 (Human PMNLs) read?
A: Its IC50 is 7000 nM.

Q: What about the IC50 (human PMNL LTB4 receptor) of the same compound?
A: Its IC50 is 90 nM.

Q: For `COc1ccc(/C=C/CCCCOc2ccc(C(O)CCCC(=O)N(C)C)cc2CCC(=O)O)cc1` (stereo not shown) [Example 20, 3-[1-[6-(4-methoxyphenyl)hex-5E-enyl]oxy-4-(1-hydroxy-4-dimethylaminocarbonylbutyl)benzen-2-yl]propionic acid], which IC50 (Human PMNLs) is on record?
A: Its IC50 is 2000 nM.

Q: And the IC50 (human PMNL LTB4 receptor)?
A: Its IC50 is 3.6 nM.

Q: What does the source list for `COc1ccc(/C=C/CCCCOc2cccc(OCCCCC(=O)N(C)C)c2CCC(=O)O)cc1` [Example 30, 3-[1-[6-(4-methoxyphenyl)hex-5E-enyl]oxy-3-(4-dimethylaminocarbonylbutyl)oxybenzen-2-yl]propionic acid]?
A: LD50 ([1]; intravenous administration): 175 mg/kg; LD50 ([1]; oral administration): 3900 mg/kg; IC50 (Human PMNLs): 840 nM; IC50 (human PMNL LTB4 receptor): 16 nM

Q: Which IC50 (Human PMNLs) does the source give for `COc1ccc(/C=C/CCCCOc2cccc(OCCCC(=O)O)c2CCC(=O)O)cc1` [Example 31, 3-[1-[6-(4-methoxyphenyl)hex-5E-enyl]oxy-3-(3-carboxylpropyl)oxybenzen-2-yl]propionic acid] here?
A: Its IC50 is 6000 nM.

Q: And the IC50 (human PMNL LTB4 receptor)?
A: The IC50 was 40 nM.

Q: What does the source list for `COc1ccc(/C=C/CCCCOc2cccc(NC(=O)CCCC(=O)N(C)C)c2CCC(=O)O)cc1` [Example 32, 3-[1-[6-(4-methoxyphenyl)hex-5E-enyl]oxy-3-(4-dimethylaminocarbonylbutanamido)benzen-2-yl]propionic acid]?
A: IC50 (Human PMNLs): 5400 nM; IC50 (human PMNL LTB4 receptor): 50 nM

Q: What does the source list for `COc1ccc(/C=C/CCCCOc2cccc(CCCCCC(=O)N(C)C)c2CCC(=O)O)cc1` [Example 34, 3-[1-[6-(4-methoxyphenyl)hex-5E-enyl]oxy-3-(5-dimethylaminocarbonylpentyl)benzen-2-yl]propionic acid]?
A: IC50 (Human PMNLs): 810 nM; IC50 (human PMNL LTB4 receptor): 20 nM

Q: With `COc1ccc(/C=C/CCCCOc2cccc(C(=O)CCCCC(=O)O)c2CCC(=O)O)cc1` [Example 37, 3-[1-[6-(4-methoxyphenyl)hex-5E-enyl]oxy-3-(1-oxo-5-carboxylpentyl)benzen-2-yl]propionic acid] as the compound, how does the IC50 (Human PMNLs) read?
A: The IC50 was 1700 nM.

Q: What about the IC50 (human PMNL LTB4 receptor) of the same compound?
A: Its IC50 is 6 nM.

Q: Which IC50 (Human PMNLs) does the source give for `COc1ccc(/C=C/CCCCOc2cccc(C(O)CCCCC(=O)O)c2CCC(=O)O)cc1` (stereo not shown) [Example 38, 3-[1-[6-(4-methoxyphenyl)hex-5E-enyl]oxy-3-(1-hydroxy-5-carboxylpentyl)benzen-2-yl]propionic acid] here?
A: Its IC50 is 4900 nM.

Q: And the IC50 (human PMNL LTB4 receptor)?
A: Its IC50 is 120 nM.

Reference: US5256686A, “Phenylalkan(en)oic acid” (Ono Pharmaceutical Co., Ltd., priority 1989, dated 1993)
